SMILES	melting point [°C]
CC(C)n1nc(-c2sc(C(=O)NC3CC3)nc2-c2ccccc2F)ccc1=O [Example 196, N-cyclopropyl-4-(2-fluorophenyl)-5-(1-isopropyl-6-oxo-1,6-dihydro-3-pyridazinyl)-1,3-thiazole-2-carboxamide]	133.5 to 135
CC(C)n1nc(-c2sc(C(=O)NC3CC3)nc2-c2cccc(F)c2)ccc1=O [Example 197, N-cyclopropyl-4-(3-fluorophenyl)-5-(1-isopropyl-6-oxo-1,6-dihydro-3-pyridazinyl)-1,3-thiazole-2-carboxamide]	145.5 to 147
CC(C)n1nc(-c2sc(C(=O)NC3CC3)nc2-c2ccc(F)cc2)ccc1=O [Example 198, N-cyclopropyl-4-(4-fluorophenyl)-5-(1-isopropyl-6-oxo-1,6-dihydro-3-pyridazinyl)-1,3-thiazole-2-carboxamide]	157 to 158
CC(C)n1nc(-c2sc(C(=O)NC3CC3)nc2-c2cccc(Cl)c2)ccc1=O [Example 199, 4-(3-chlorophenyl)-N-cyclopropyl-5-(1-isopropyl-6-oxo-1,6-dihydro-3-pyridazinyl)-1,3-thiazole-2-carboxamide]	118.5 to 119.5
O=C(NCc1ccccn1)c1nc(-c2ccccc2)c(-c2ccc(=O)[nH]n2)s1 [Example 200, 5-(6-oxo-1,6-dihydro-3-pyridazinyl)-4-phenyl-N-(2-pyridinylmethyl)-1,3-thiazole-2-carboxamide]	221 to 222.5
Cn1nc(-c2sc(C(=O)NCc3ccccn3)nc2-c2ccccc2)ccc1=O [Example 201, 5-(1-methyl-6-oxo-1,6-dihydro-3-pyridazinyl)-4-phenyl-N-(2-pyridinylmethyl)-1,3-thiazole-2-carboxamide]	189 to 190.5
CCn1nc(-c2sc(C(=O)NCc3ccccn3)nc2-c2ccccc2)ccc1=O [Example 202, 5-(1-Ethyl-6-oxo-1,6-dihydro-3-pyridazinyl)-4-phenyl-N-(2-pyridinylmethyl)-1,3-thiazole-2-carboxamide]	169 to 170.5
CCCn1nc(-c2sc(C(=O)NCc3ccccn3)nc2-c2ccccc2)ccc1=O [Example 203, 5-(6-Oxo-1-propyl-1,6-dihydro-3-pyridazinyl)-4-phenyl-N-(2-pyridinylmethyl)-1,3-thiazole-2-carboxamide]	134 to 135.5
C=CCn1nc(-c2sc(C(=O)NCc3ccccn3)nc2-c2ccccc2)ccc1=O [Example 204, 5-(1-Allyl-6-oxo-1,6-dihydro-3-pyridazinyl)-4-phenyl-N-(2-pyridinylmethyl)-1,3-thiazole-2-carboxamide]	117 to 118
O=C(NCc1ccccn1)c1nc(-c2ccccc2)c(-c2ccc(=O)n(Cc3ccccc3)n2)s1 [Example 205, 5-(1-Benzyl-6-oxo-1,6-dihydro-3-pyridazinyl)-4-phenyl-N-(2-pyridinylmethyl)-1,3-thiazole-2-carboxamide]	172.5 to 173.5
COCCn1nc(-c2sc(C(=O)NCc3ccccn3)nc2-c2ccccc2)ccc1=O [Example 206, 5-[1-(2-Methoxyethyl)-6-oxo-1,6-dihydro-3-pyridazinyl]-4-phenyl-N-(2-pyridinylmethyl)-1,3-thiazole-2-carboxamide]	168 to 169.5
CC(C)n1nc(-c2sc(C(=O)NCc3ccccn3)nc2-c2ccccc2F)ccc1=O [Example 207, 4-(2-Fluorophenyl)-5-(1-isopropyl-6-oxo-1,6-dihydro-3-pyridazinyl)-N-(2-pyridinylmethyl)-1,3-thiazole-2-carboxamide]	190 to 191
CC(C)n1nc(-c2sc(C(=O)NCc3ccccn3)nc2-c2cccc(F)c2)ccc1=O [Example 208, 4-(3-Fluorophenyl)-5-(1-isopropyl-6-oxo-1,6-dihydro-3-pyridazinyl)-N-(2-pyridinylmethyl)-1,3-thiazole-2-carboxamide]	188 to 189.5
CC(C)n1nc(-c2sc(C(=O)NCc3ccccn3)nc2-c2cccc(Cl)c2)ccc1=O [Example 209, 4-(3-Chlorophenyl)-5-(1-isopropyl-6-oxo-1,6-dihydro-3-pyridazinyl)-N-(2-pyridinylmethyl)-1,3-thiazole-2-carboxamide]	168 to 169.5
CC(C)n1nc(-c2sc(C(=O)NCc3ccccn3)nc2-c2ccccc2)ccc1=O [Example 210, 5-(1-isopropyl-6-oxo-1,6-dihydro-3-pyridazinyl)-4-phenyl-N-(2-pyridinylmethyl)-1,3-thiazole-2-carboxamide]	176.5 to 177.5
CC(C)n1nc(-c2sc(C(=O)NCc3ccccn3)nc2-c2ccc(F)cc2)ccc1=O [Example 211, 4-(4-Fluorophenyl)-5-(1-isopropyl-6-oxo-1,6-dihydro-3-pyridazinyl)-N-(2-pyridinylmethyl)-1,3-thiazole-2-carboxamide]	203.5 to 205
CNC(=O)c1nc(-c2ccccc2)c(-c2ccc(=O)n(C(C)C)n2)s1 [Example 212, 5-(1-isopropyl-6-oxo-1,6-dihydro-3-pyridazinyl)-N-methyl-4-phenyl-1,3-thiazole-2-carboxamide]	165 to 167.5

SMILES	melting point [°C]
CC(C)n1nc(-c2sc(C(=O)N(C)C)nc2-c2ccccc2)ccc1=O [Example 213, 5-(1-isopropyl-6-oxo-1,6-dihydro-3-pyridazinyl)-N,N-dimethyl-4-phenyl-1,3-thiazole-2-carboxamide]	141 to 144
CCCCNC(=O)c1nc(-c2ccccc2)c(-c2ccc(=O)n(C(C)C)n2)s1 [Example 215, N-butyl-5-(1-isopropyl-6-oxo-1,6-dihydro-3-pyridazinyl)-4-phenyl-1,3-thiazole-2-carboxamide]	147.5 to 148.5
CC(=O)NCCNC(=O)c1nc(-c2ccccc2)c(-c2ccc(=O)n(C(C)C)n2)s1 [Example 217, N-[2-(Acetylamino)ethyl]-5-(1-isopropyl-6-oxo-1,6-dihydro-3-pyridazinyl)-4-phenyl-1,3-thiazole-2-carboxamide]	170 to 171.5
CC(C)n1nc(-c2sc(C(=O)N3CCCCC3)nc2-c2ccccc2)ccc1=O [Example 218, 2-Isopropyl-6-[4-phenyl-2-(1-piperidinylcarbonyl)-1,3-thiazol-5-yl]-3(2H)-pyridazinone]	111 to 112
CC(=O)N1CCN(C(=O)c2nc(-c3ccccc3)c(-c3ccc(=O)n(C(C)C)n3)s2)CC1 [Example 219, 6-{2-[(4-Acetyl-1-piperazinyl)carbonyl]-4-phenyl-1,3-thiazol-5-yl}-2-isopropyl-3(2H)-pyridazinone]	78 to 82
CC(C)n1nc(-c2sc(C(=O)NCc3ccccc3)nc2-c2ccccc2)ccc1=O [Example 220, N-Benzyl-5-(1-isopropyl-6-oxo-1,6-dihydro-3-pyridazinyl)-4-phenyl-1,3-thiazole-2-carboxamide]	186 to 187
Cc1cnc(CNC(=O)c2nc(-c3ccc(F)cc3)c(-c3ccc(=O)n(C(C)C)n3)s2)cn1 [Example 221, 4-(4-Fluorophenyl)-5-(1-isopropyl-6-oxo-1,6-dihydro-3-pyridazinyl)-N-[(5-methyl-2-pyrazinyl)methyl]-1,3-thiazole-2-carboxamide]	187.5 to 188.5
CC(C)n1nc(-c2sc(C(=O)NCC(N)=O)nc2-c2ccccc2)ccc1=O [Example 222, N-(2-amino-2-oxoethyl)-5-(1-isopropyl-6-oxo-1,6-dihydro-3-pyridazinyl)-4-phenyl-1,3-thiazole-2-carboxamide]	247.5 to 249
CC(C)n1nc(-c2sc(C(=O)NCCN3CCOCC3)nc2-c2ccccc2)ccc1=O [Example 224, 5-(1-Isopropyl-6-oxo-1,6-dihydro-3-pyridazinyl)-N-[2-(4-morpholinyl)-ethyl]-4-phenyl-1,3-thiazole-2-carboxamide]	196.5 to 197.5
CC(C)n1nc(-c2sc(C(=O)NC3CCCCC3)nc2-c2ccccc2)ccc1=O [Example 225, N-Cyclohexyl-5-(1-isopropyl-6-oxo-1,6-dihydro-3-pyridazinyl)-4-phenyl-1,3-thiazole-2-carboxamide]	225 to 226
CC(C)n1nc(-c2sc(C(=O)N3CCCC3)nc2-c2ccccc2)ccc1=O [Example 226, 2-Isopropyl-6-[4-phenyl-2-(1-pyrrolidinylcarbonyl)-1,3-thiazol-5-yl]-3(2H)-pyridazinone]	169 to 170.5
CC(C)n1nc(-c2sc(C(=O)N3CCOCC3)nc2-c2ccccc2)ccc1=O [Example 227, 2-Isopropyl-6-[2-(4-morpholinylcarbonyl)-4-phenyl-1,3-thiazol-5-yl]-3(2H)-pyridazinone]	161.5 to 162.5
CC(C)n1nc(-c2sc(C(=O)N3CCN(C)CC3)nc2-c2ccccc2)ccc1=O [Example 228, 2-Isopropyl-6-{2-[(4-methyl-1-piperazinyl)carbonyl]-4-phenyl-1,3-thiazol-5-yl)-3(2H)-pyridazinone]	155 to 156.5
CC(C)n1nc(-c2sc(C(=O)N3CCN(Cc4ccccc4)CC3)nc2-c2ccccc2)ccc1=O [Example 229, 6-{2-[(4-Benzyl-1-piperazinyl)carbonyl]-4-phenyl-1,3-thiazol-5-yl}-2-isopropyl-3(2H)-pyridazinone]	181 to 182
CC(C)n1nc(-c2sc(C(=O)N3CCN(c4ccccc4)CC3)nc2-c2ccccc2)ccc1=O [Example 231, 2-isopropyl-6-(4-phenyl-2-[(4-phenyl-1-piperazinyl)carbonyl]-1,3-thiazol-5-yl}-3(2H)-pyridazinone]	163.5 to 165
CC(C)n1nc(-c2sc(C(=O)NCCc3ccccn3)nc2-c2ccccc2)ccc1=O [Example 234, 5-(1-Isopropyl-6-oxo-1,6-dihydro-3-pyridazinyl)-4-phenyl-N-[2-(2-pyridinyl)ethyl]-1,3-thiazole-2-carboxamide]	144 to 147
CC(C)n1nc(-c2sc(C(=O)NCc3ccncc3)nc2-c2ccc(F)cc2)ccc1=O [Example 236, 4-(4-Fluorophenyl)-5-(1-isopropyl-6-oxo-1,6-dihydro-3-pyridazinyl)-N-(4-pyridinylmethyl)-1,3-thiazole-2-carboxamide]	155 to 157

— US20050004134A1, “Thiazole derivative and pharmaceutical use thereof” (priority 2001, published 2005)
